From ChEMBL document CHEMBL4411307, “N,N'-diaryl-bishydrazones in a biphenyl platform: Broad spectrum antifungal agents” (Eur J Med Chem, 2019)
Values after ≈ are worked out from the molar mass of the structure shown. Active and inactive are the calls of the source. The rule behind the calls is not given here.

Key:
[1] = system: Candida albicans; test: Antifungal activity against fluconazole/ITC-susceptible Candida albicans ATCC MYA-2876 measured after 48 hrs by CLSI M27-A3 protocol based method; assay type: functional; conditions: ATCC MYA-2876, 48 h
[2] = system: Candida albicans; test: Antifungal activity against fluconazole/ITC-resistant Candida albicans ATCC MYA-1003 measured after 48 hrs by CLSI M27-A3 protocol based method; assay type: functional; conditions: ATCC MYA-1003, 48 h
[3] = system: Candida parapsilosis; test: Antifungal activity against Candida parapsilosis ATCC 22019 measured after 48 hrs by CLSI M27-A3 protocol based method; assay type: functional; conditions: Lodderomyces parapsilosis, ATCC 22019, 48 h
[4] = system: Candida albicans; test: Antifungal activity against fluconazole/ITC-resistant Candida albicans ATCC 90819 measured after 48 hrs by CLSI M27-A3 protocol based method; assay type: functional; conditions: ATCC 90819, 48 h
[5] = system: Aspergillus flavus; test: Antifungal activity against Aspergillus flavus ATCC MYA-3631 measured after 48 hrs by CLSI M38-A2 protocol based method; assay type: functional; conditions: ATCC MYA-3631, 48 h
[6] = system: Pichia kudriavzevii; test: Antifungal activity against Candida krusei ATCC 6258 measured after 48 hrs by CLSI M27-A3 protocol based method; assay type: functional; conditions: ATCC 6258, 48 h
[7] = system: Candida albicans; test: Antifungal activity against fluconazole/ITC-resistant Candida albicans ATCC MYA-1237 measured after 48 hrs by CLSI M27-A3 protocol based method; assay type: functional; conditions: ATCC MYA-1237, 48 h
[8] = system: Candida albicans; test: Antifungal activity against fluconazole/ITC-resistant Candida albicans ATCC 10231 measured after 48 hrs by CLSI M27-A3 protocol based method; assay type: functional; conditions: ATCC 10231, 48 h
[9] = system: Aspergillus terreus; test: Antifungal activity against Aspergillus terreus ATCC MYA-3633 measured after 48 hrs by CLSI M38-A2 protocol based method; assay type: functional; conditions: ATCC MYA-3633, 48 h
[10] = system: Listeria monocytogenes; test: Antibacterial activity against Listeria monocytogenes; assay type: functional, organism-based
[11] = system: Candida albicans; test: Antifungal activity against fluconazole/ITC-resistant Candida albicans ATCC 64124 measured after 48 hrs by CLSI M27-A3 protocol based method; assay type: functional; conditions: ATCC 64124, 48 h
[12] = system: Staphylococcus aureus; test: Antibacterial activity against methicillin-resistant Staphylococcus aureus; assay type: functional, organism-based
[13] = system: Enterococcus; test: Antibacterial activity against vancomycin-resistant Enterococcus; assay type: functional, organism-based
[14] = system: Aspergillus nidulans; test: Antifungal activity against Aspergillus nidulans ATCC 38163 measured after 48 hrs by CLSI M38-A2 protocol based method; assay type: functional; conditions: ATCC 38163, 48 h
[15] = system: Candida albicans; test: Antifungal activity against fluconazole/ITC-susceptible Candida albicans ATCC MYA-2310 measured after 48 hrs by CLSI M27-A3 protocol based method; assay type: functional; conditions: ATCC MYA-2310, 48 h
[16] = system: Nakaseomyces glabratus; test: Antifungal activity against Candida glabrata ATCC 2001 measured after 48 hrs by CLSI M27-A3 protocol based method; assay type: functional; conditions: CBS 138, 48 h

SMILES	MIC [1]	MIC [2]	MIC [3]	MIC [4]	MIC [5]	MIC [6]	MIC [7]	MIC [8]	MIC [9]	Activity [10]	MIC [11]	Activity [12]	Activity [13]	MIC [14]	MIC [15]	MIC [16]
Fc1cc(F)cc(N/N=C/c2ccc(-c3cccc(/C=N/Nc4cc(F)cc(F)c4)c3)cc2)c1	31.3 µg/mL (≈ 67.7 µM)	31.3 µg/mL (≈ 67.7 µM)	> 31.3 µg/mL	> 31.3 µg/mL	> 31.3 µg/mL	> 31.3 µg/mL	31.3 µg/mL (≈ 67.7 µM)	3.9 µg/mL (≈ 8.43 µM)	> 31.3 µg/mL	inactive	15.6 µg/mL (≈ 33.7 µM)	inactive	inactive	> 31.3 µg/mL	> 31.3 µg/mL	> 31.3 µg/mL
Clc1ccc(N/N=C/c2ccc(-c3ccc(/C=N/Nc4ccc(Cl)cc4)cc3)cc2)cc1	> 31.3 µg/mL	> 31.3 µg/mL	31.3 µg/mL (≈ 68.1 µM)	> 31.3 µg/mL	> 31.3 µg/mL	31.3 µg/mL (≈ 68.1 µM)	> 31.3 µg/mL	> 31.3 µg/mL	31.3 µg/mL (≈ 68.1 µM)	inactive	> 31.3 µg/mL	inactive	inactive	> 31.3 µg/mL	> 31.3 µg/mL	> 31.3 µg/mL
CC[C@H](C)C[C@H](C)CCCCCCCCC(=O)N[C@H]1C[C@@H](O)[C@@H](NCCN)NC(=O)[C@@H]2[C@@H](O)CCN2C(=O)[C@H]([C@H](O)CCN)NC(=O)[C@H]([C@H](O)[C@@H](O)c2ccc(O)cc2)NC(=O)[C@@H]2C[C@@H](O)CN2C(=O)[C@H]([C@@H](C)O)NC1=O [CASPOFUNGIN]	0.06 µg/mL (≈ 0.0549 µM)	0.48 µg/mL (≈ 0.439 µM)	1.95 µg/mL (≈ 1.78 µM)	0.12 µg/mL (≈ 0.11 µM)	> 31.3 µg/mL	0.48 µg/mL (≈ 0.439 µM)	0.24 µg/mL (≈ 0.22 µM)	0.975 µg/mL (≈ 0.892 µM)	> 31.3 µg/mL		0.24 µg/mL (≈ 0.22 µM)			> 31.3 µg/mL	0.12 µg/mL (≈ 0.11 µM)	0.06 µg/mL (≈ 0.0549 µM)
Fc1cc(F)cc(N/N=C/c2ccc(-c3ccc(/C=N/Nc4cc(F)cc(F)c4)cc3)cc2)c1	> 31.3 µg/mL	> 31.3 µg/mL	> 31.3 µg/mL	> 31.3 µg/mL	> 31.3 µg/mL	> 31.3 µg/mL	> 31.3 µg/mL	15.6 µg/mL (≈ 33.7 µM)	> 31.3 µg/mL	inactive	> 31.3 µg/mL	inactive	inactive	> 31.3 µg/mL	> 31.3 µg/mL	> 31.3 µg/mL
Brc1ccc(N/N=C/c2ccc(-c3ccc(/C=N/Nc4ccc(Br)cc4)cc3)cc2)cc1	> 31.3 µg/mL	> 31.3 µg/mL	31.3 µg/mL (≈ 57.1 µM)	> 31.3 µg/mL	> 31.3 µg/mL	> 31.3 µg/mL	> 31.3 µg/mL	> 31.3 µg/mL	> 31.3 µg/mL	inactive	> 31.3 µg/mL	inactive	inactive	> 31.3 µg/mL	> 31.3 µg/mL	> 31.3 µg/mL
COc1cccc(N/N=C(\C)c2ccc(-c3ccc(/C(C)=N/Nc4cccc(OC)c4)cc3)cc2)c1	15.6 µg/mL (≈ 32.6 µM)	3.9 µg/mL (≈ 8.15 µM)	15.6 µg/mL (≈ 32.6 µM)	31.3 µg/mL (≈ 65.4 µM)	> 31.3 µg/mL	0.98 µg/mL (≈ 2.05 µM)	31.3 µg/mL (≈ 65.4 µM)	0.98 µg/mL (≈ 2.05 µM)	> 31.3 µg/mL	inactive	0.98 µg/mL (≈ 2.05 µM)	inactive	inactive	> 31.3 µg/mL	15.6 µg/mL (≈ 32.6 µM)	15.6 µg/mL (≈ 32.6 µM)
Fc1ccccc1N/N=C/c1ccc(-c2ccc(/C=N/Nc3ccccc3F)cc2)cc1	15.6 µg/mL (≈ 36.6 µM)	15.6 µg/mL (≈ 36.6 µM)	> 31.3 µg/mL	31.3 µg/mL (≈ 73.4 µM)	> 31.3 µg/mL	3.9 µg/mL (≈ 9.14 µM)	> 31.3 µg/mL	3.9 µg/mL (≈ 9.14 µM)	> 31.3 µg/mL	inactive	> 31.3 µg/mL	inactive	inactive	31.3 µg/mL (≈ 73.4 µM)	> 31.3 µg/mL	> 31.3 µg/mL
Clc1ccc(N/N=C/c2ccc(-c3cccc(/C=N/Nc4ccc(Cl)cc4)c3)cc2)cc1	15.6 µg/mL (≈ 34 µM)	3.9 µg/mL (≈ 8.49 µM)	3.9 µg/mL (≈ 8.49 µM)	15.6 µg/mL (≈ 34 µM)	> 31.3 µg/mL	31.3 µg/mL (≈ 68.1 µM)	15.6 µg/mL (≈ 34 µM)	7.8 µg/mL (≈ 17 µM)	> 31.3 µg/mL	inactive	7.8 µg/mL (≈ 17 µM)	inactive	inactive	> 31.3 µg/mL	31.3 µg/mL (≈ 68.1 µM)	15.6 µg/mL (≈ 34 µM)
COc1ccccc1N/N=C(\C)c1ccc(-c2ccc(/C(C)=N/Nc3ccccc3OC)cc2)cc1	> 31.3 µg/mL	31.3 µg/mL (≈ 65.4 µM)	31.3 µg/mL (≈ 65.4 µM)	> 31.3 µg/mL	> 31.3 µg/mL	31.3 µg/mL (≈ 65.4 µM)	> 31.3 µg/mL	15.6 µg/mL (≈ 32.6 µM)	> 31.3 µg/mL	inactive	> 31.3 µg/mL	inactive	inactive	> 31.3 µg/mL	> 31.3 µg/mL	> 31.3 µg/mL
Fc1cccc(N/N=C/c2ccc(-c3ccc(/C=N/Nc4cccc(F)c4F)cc3)cc2)c1F	> 31.3 µg/mL	> 31.3 µg/mL	> 31.3 µg/mL	> 31.3 µg/mL	> 31.3 µg/mL	> 31.3 µg/mL	> 31.3 µg/mL	31.3 µg/mL (≈ 67.7 µM)	> 31.3 µg/mL	inactive	> 31.3 µg/mL	inactive	inactive	> 31.3 µg/mL	> 31.3 µg/mL	> 31.3 µg/mL
C/C(=N\NC(=N)N)c1ccc(-c2ccc(/C(C)=N/NC(=N)N)cc2)cc1	15.6 µg/mL (≈ 44.5 µM)	15.6 µg/mL (≈ 44.5 µM)	1.95 µg/mL (≈ 5.56 µM)	3.9 µg/mL (≈ 11.1 µM)	> 31.3 µg/mL	3.9 µg/mL (≈ 11.1 µM)	15.6 µg/mL (≈ 44.5 µM)	3.9 µg/mL (≈ 11.1 µM)	> 31.3 µg/mL		3.9 µg/mL (≈ 11.1 µM)			15.6 µg/mL (≈ 44.5 µM)	15.6 µg/mL (≈ 44.5 µM)	7.8 µg/mL (≈ 22.3 µM)
N=C(N)N/N=C/c1ccc(-c2ccc(/C=N/NC(=N)N)cc2)cc1	> 31.3 µg/mL	15.6 µg/mL (≈ 48.4 µM)	3.9 µg/mL (≈ 12.1 µM)	> 31.3 µg/mL	> 31.3 µg/mL	15.6 µg/mL (≈ 48.4 µM)	> 31.3 µg/mL	31.3 µg/mL (≈ 97.1 µM)	> 31.3 µg/mL		> 31.3 µg/mL			> 31.3 µg/mL	> 31.3 µg/mL	> 31.3 µg/mL
